In patent US8785424B2, “ngCycloartanone derivatives with anticancer activity” (Pierre Fabre Medicament, priority 2009, dated 2014):
Structures can show the parent of a compound that is named as a salt.

Test system: proteasome
Assay: Cellular proteasome inhibition test: accumulation of 4Ub-Luc reporter (luciferase activity) in DLD-1 4Ub-Luc cell line
Format: cell-based, human
Details: DLD-1 4Ub-Luc cells; for relative induction factor (IF % luminescence) versus epoxomicin: 8 hours, epoxomicin = 100%
Description: Biological tests were carried out according to protocols described in the following articles: Ausseil F. et al. J. Biomol Screen. 2007, 12, 106-116 and Vandenberghe I. et al. Biochemical Pharmacology 2008, 76, 453-462.
In order to select novel proteasome inhibitor compounds, it is necessary to indirectly measure the activity of this proteasome within cells. To this end, we constructed a stable cell line, DLD-1 4Ub-Luc, arising from a human colon cancer cell line, which produces a chimeric reporter protein called 4Ub-Luc. This protein is a fusion between a 4-ubiquitin (4Ub) label and luciferase (Luc). This label is capable to direct every proteins that carry it toward the proteasome. The 4Ub-Luc protein is thus efficiently degraded by the proteasome, in contrast to the “wild” non-fused Luc protein. When the DLD-1 4Ub-Luc cell line is treated with a proteasome inhibitor, the fusion protein is much less efficiently degraded and accumulates in the cell. This accumulation is detected by an increase in luciferase activity in the treated extract compared to the extract from untreated cells. The control consists of verifying that the inhibitor has no effect on accumulation of the wild Luc protein produced by the stable DLD-1 RF cell line. For both cell lines and for each product an induction factor is determined for the product tested (or the reference) corresponding to the ratio between the luciferase activities measured in cells treated with this product (or the reference) and cells treated with solvent alone.
The product's activity is then defined by its relative induction factor, i.e., the ratio of its induction factor (IF % luminescence) to that of the reference molecule epoxomicin (IF=100%; see data presented in the table below).
Thus, the test established by Pierre-Fabre is a cellular test that has the advantage, compared to a purely enzymatic test, of detecting only products capable of penetrating the cell.
Two cell lines are used for this test: DLD-1 RF and DLD-1 4Ub-Luc. The culture medium used is as follows: • MEM • 5% fetal calf serum • 5 ml of penicillin-streptomycin • 2.5 ml of FUNGIZONE® (Amphotericin B) • 10 ml of […]
Day 1: Inoculate white 96-well culture-treated plates (PerkinElmer White ViewPlate, product no. 6005181) with 100 μl of 1·10^5 c/ml cell suspension per well. Incubate for 24 hours so that the cells adhere. On each plate five columns will be inoculated with DLD-1 4Ub-Luc and five others with DLD-1 RF according to diagram 1 below.
Day 2: Remove the medium by turning the plates upside down on cotton, and then carry out the treatment with the compounds of the invention, with solvent alone or with a reference compound such as epoxomicin. […]
The columns are paired (examples 2 and 8, 3 and 9, 4 and 10 and 5 and 11) and treated with the same compound. Columns 6 and 7 receive the experimental control, namely 0.1% DMSO in culture medium for wells B, C, D, and E of columns 6 and 7, and the positive control (10^−7 M epoxomicin) in wells F and G.
After incubation, turn the plate upside down on cotton to empty the wells, rinse with 50 μl of PBS to remove any trace of the cytotoxin tested and then add 50 μl of 5× passive lysis buffer (Promega, product no. E1941) diluted to ⅕ in water. Shake energetically using a plate shaker for 5 to 10 minutes at room temperature before freezing at −20° C.
Luciferase activity is measured using a Luciferase Assay System 10-Pack kit (Promega, product no. E1501).
On the day luciferase activity is to be measured, defrost the plates and wait until they have returned to room temperature. The optimal temperature for luciferase activity is 20-25° C.
Reconstitute the firefly luciferase substrate by defrosting the buffer and then adding 10 ml of buffer to the bottle containing the freeze-dried substrate. Wait until the solution is at room temperature before beginning the assay. […]

[1] = concentration tested 5 · 10^−6 M
[2] = concentration tested 5 · 10^−7 M

SMILES	relative induction factor (IF % luminescence) versus epoxomicin [1]	relative induction factor (IF % luminescence) versus epoxomicin (concentration tested 10^−5 M)	relative induction factor (IF % luminescence) versus epoxomicin (concentration tested 10^−6 M)	relative induction factor (IF % luminescence) versus epoxomicin [2]	induction factor of the reference (IF % luminescence) (reference molecule at 10^−7 M, set to IF=100%)	relative induction factor (IF % luminescence) versus epoxomicin (concentration tested 5 · 10^−6 M, hydrochloride)	relative induction factor (IF % luminescence) versus epoxomicin (concentration tested 10^−5 M, hydrochloride)	relative induction factor (IF % luminescence) versus epoxomicin (concentration tested 10^−6 M, hydrochloride)
CC(=O)O[C@H]1C[C@@]2(C)[C@@H]3CC[C@H]4[C@H](C)C(=O)C=C[C@@]45C[C@@]35CC[C@]2(C)[C@H]1[C@H](C)[C@@H](OC(C)=O)C12OCC(C)C1Cc1ccc(O)cc1O2 (some centres unmarked) [Compound 88, Neoboutomellerone Resorcinol Derivative]	47%	78%	1%					
C=C(C(=O)[C@H](OC(C)=O)[C@@H](C)[C@H]1[C@@H](OC(C)=O)C[C@@]2(C)[C@@H]3CC[C@H]4[C@H](C)C(=O)C=C[C@@]45C[C@@]35CC[C@]12C)[C@@H](C)COC(=O)Nc1ccccc1 [Compound 20, 26-N-phenylcarbamate-neoboutomellerone]	60%		42%	6%				
CC(=O)O[C@H]1C[C@@]2(C)[C@@H]3CC[C@H]4[C@H](C)C(=O)C=C[C@@]45C[C@@]35CC[C@]2(C)[C@H]1[C@H](C)[C@@H](OC(C)=O)C(=O)C=C(C)C [Compound 9, 26-dehydroxy,24,25-dehydro-nor-neoboutomellerone]	34%	44%	1%					
CC[C@H](C)[C@H](NC(=O)[C@H]([C@@H](C)CC)N(C)C(C)=O)C(=O)N[C@H](C(=O)N[C@@H](CC(C)C)C(=O)[C@@]1(C)CO1)[C@@H](C)O [epoxomicin, reference compound]					100%			
C=C(C(=O)[C@H](O)[C@@H](C)[C@H]1[C@@H](OC(C)=O)C[C@@]2(C)[C@@H]3C[C@@H](O)[C@H]4[C@H](C)C(=O)C=C[C@@]45C[C@@]35CC[C@]12C)[C@@H](C)CO [Compound 16, 6-hydroxy-22-deacetyl-neoboutomellerone]	35%		1%					
C=C(C(=O)[C@H](OC(C)=O)[C@@H](C)[C@H]1[C@@H](OC(C)=O)C[C@@]2(C)[C@@H]3CC[C@H]4[C@H](C)C(=O)C=C[C@@]45C[C@@]35CC[C@]12C)[C@@H](C)COC(=O)N1CCN(C)CC1 [Compound 22, 26-N—(N-methylpiperazine)carbamate-neoboutomellerone hydrochloride]	4%	1%	68%	8%				
C=C(C(=O)[C@H](OC(C)=O)[C@@H](C)[C@H]1[C@@H](OC(C)=O)C[C@@]2(C)C3CCC4[C@H](C)C(=O)C=C[C@@]45C[C@@]35CC[C@]12C)[C@@H](C)COC(=O)CN(C)C (some centres unmarked) [Compound 63, neoboutomellerone 26-N-dimethyl glycinate hydrochloride]				66%		11%	3%	50%
C=C(C(=O)[C@H](O)[C@@H](C)[C@H]1[C@@H](OC(C)=O)C[C@@]2(C)C3CCC4[C@H](C)C(=O)C=C[C@@]45C[C@@]35CC[C@]12C)[C@@H](C)COC(=O)CN(C)C (some centres unmarked) [Compound 64, 22-deacetyl-neoboutomellerone 26-N-dimethyl glycinate]	35%	7%	22%					
C=C(C(=O)[C@H](O)[C@@H](C)[C@H]1[C@@H](OC(C)=O)C[C@@]2(C)[C@@H]3CC[C@H]4[C@H](C)C(=O)C=C[C@@]45C[C@@]35CC[C@]12C)[C@@H](C)COC(=O)N1CCN(C)CC1 [Compound 23, 26-N—(N-methylpiperazine)carbamate-22-deacetyl-neoboutomellerone]	7%	2%	69%	15%				
C=C(C(=O)[C@H](O)[C@@H](C)[C@H]1[C@@H](OC(C)=O)C[C@@]2(C)[C@@H]3CC[C@H]4[C@H](C)C(=O)C=C[C@@]45C[C@@]35CC[C@]12C)[C@@H](C)CO [Compound 1, 22-deacetyl-neoboutomellerone]	28%	3%	45%	1%				
C=C(C(=O)[C@H](O)[C@@H](C)[C@H]1[C@@H](OC(C)=O)C[C@@]2(C)[C@@H]3CC[C@H]4[C@H](C)C(=O)C=C[C@@]45C[C@@]35CC[C@]12C)[C@@H](C)COC(=O)CCN(CC)CC [Compound 66, 26-deacetyl-neoboutomellerone 26-N-diethyl-β-alaninate]	9%	2%	13%					
C=C(C(=O)[C@H](OC(C)=O)[C@@H](C)[C@H]1[C@@H](OC(C)=O)C[C@@]2(C)C3CCC4[C@H](C)C(=O)C=C[C@@]45C[C@@]35CC[C@]12C)[C@@H](C)COC1(C)OC2OC(COC(C)=O)C(OC(C)=O)C(OC(C)O)C2O1 (some centres unmarked) [Compound 82, Neoboutomellerone 26-(2,3,4,6-tetraacetyl-glucosylate)]	59%	48%	2%					
C=C(C(=O)[C@H](OC(C)=O)[C@@H](C)[C@H]1[C@@H](OC(C)=O)C[C@@]2(C)[C@@H]3[C@H]4O[C@H]4[C@H]4[C@H](C)C(=O)C=C[C@@]45C[C@@]35CC[C@]12C)[C@@H](C)CO [Compound 12, 6,7-epoxy-neoboutomellerone]	72%	15%	3%					
C=C(C(=O)[C@H](OC(C)=O)[C@@H](C)[C@H]1[C@@H](OC(C)=O)C[C@@]2(C)[C@@H]3CC[C@H]4[C@H](C)C(=O)C=C[C@@]45C[C@@]35CC[C@]12C)[C@@H](C)CO [Compound 2, Neoboutomellerone]	37%	4%	48%	2%				
C=C(C(=O)[C@H](OC(C)=O)[C@@H](C)[C@H]1[C@@H](OC(C)=O)C[C@@]2(C)[C@@H]3CC[C@H]4[C@H](C)C(=O)C=C[C@@]45C[C@@]35CC[C@]12C)[C@@H](C)COP(=O)(O)O [Compound 90, 26-phosphate-neoboutomellerone N-methyl Glutamine Salt]	4%	51%	1%					
C=C(C(=O)[C@H](OC(C)=O)[C@@H](C)[C@H]1[C@@H](OC(C)=O)C[C@@]2(C)[C@@H]3CC[C@H]4[C@H](C)C(=O)C=C[C@@]45C[C@@]35CC[C@]12C)[C@@H](C)COC(C)=O [Compound 18, 26-acetyl-neoboutomellerone]	48%		12%	1%				
